Experimental data taken from US8901133B2, “Heterocyclic compounds and uses thereof” (Infinity Pharmaceuticals, Inc., priority 2010, dated 2014).

Columns and labels:
Assay type in all cases: biochemical
PI3Kδ = target: T1, PI3Kδ (Homo sapiens, UniProt O00329); assay: PI3 Kinase HTRF assay, PI3Kδ; settings: 10 μM PIP2, 10 μM ATP; read-out: PI3K δ IC50
T1 construct: purchased Millipore Corporation 14-604-K
Description: (§1) A PI3 Kinase HTRF® assay kit (cat No. 33-016) purchased from Millipore Corporation was used to screen compounds disclosed herein. This assay used specific, high affinity binding of the GRP1 pleckstrin homology (PH) domain to PIP3, the product of a Class 1A or 1B PI3 Kinase acting on its physiological substrate PIP2. During the detection phase of the assay, a complex was generated between the GST-tagged PH domain and biotinylated short chain PIP3. The biotinylated PIP3 and the GST-tagged PH domain recruited fluorophores (Streptavidin-Allophycocyanin and Europium-labeled anti-GST respectively) to form the fluorescence resonance energy transfer (FRET) architecture, generating a stable time-resolved FRET signal. The FRET complex was disrupted in a competitive manner by non-biotinylated PIP3, a product formed in the PI3 Kinase assay.
(§2) PI3 Kinase α, β, γ and δ activity was assayed using the PI3 Kinase HTRF® assay kit (catalogue No. 33-016) purchased from Millipore Corporation. Purified recombinant PI3Kα (catalogue No. 14-602-K), PI3Kβ (catalogue No. 14-603-K), PI3Kγ (catalogue No. 14-558-K) and PI3Kδ (catalogue No. 14-604-K) were obtained from Millipore Corporation. Purified recombinant PI3K enzyme was used to catalyze the phosphorylation of phosphatidylinositol 4,5-bisphosphate (PIP2 at 10 μM) to phosphatidylinositol 3,4,5-trisphosphate (PIP3) in the presence of 10 μM ATP. The assay was carried out in 384-well format and detected using a Perkin Elmer En Vision Xcite Multilabel Reader. Emission ratios were converted into percent inhibitions and imported into GraphPad Prism software. The concentration necessary to achieve inhibition of enzyme activity by 50% (IC50) was calculated using concentrations ranging from 20 μM to 0.1 nM (12-point curve). IC50 values were determined using a nonlinear regression model available in GraphPad Prism 5. […]

PI3Kγ = target: T2, PI3Kγ (Homo sapiens, UniProt P48736); assay: PI3 Kinase HTRF assay, PI3Kγ; settings: 10 μM PIP2, 10 μM ATP; read-out: PI3K γ IC50
T2 construct: purchased Millipore Corporation 14-558-K
Description: as §1, §2

PI3Kα = target: T3, PI3Kα (Homo sapiens, UniProt P42336); assay: PI3 Kinase HTRF assay, PI3Kα; settings: 10 μM PIP2, 10 μM ATP; read-out: PI3K α IC50
T3 construct: purchased Millipore Corporation 14-602-K
Description: as §1, §2

PI3Kβ = target: T4, PI3Kβ (Homo sapiens, UniProt P42338); assay: PI3 Kinase HTRF assay, PI3Kβ; settings: 10 μM PIP2, 10 μM ATP; read-out: PI3K β IC50
T4 construct: purchased Millipore Corporation 14-603-K
Description: as §1, §2

T2 sequence (P48736 whole entry): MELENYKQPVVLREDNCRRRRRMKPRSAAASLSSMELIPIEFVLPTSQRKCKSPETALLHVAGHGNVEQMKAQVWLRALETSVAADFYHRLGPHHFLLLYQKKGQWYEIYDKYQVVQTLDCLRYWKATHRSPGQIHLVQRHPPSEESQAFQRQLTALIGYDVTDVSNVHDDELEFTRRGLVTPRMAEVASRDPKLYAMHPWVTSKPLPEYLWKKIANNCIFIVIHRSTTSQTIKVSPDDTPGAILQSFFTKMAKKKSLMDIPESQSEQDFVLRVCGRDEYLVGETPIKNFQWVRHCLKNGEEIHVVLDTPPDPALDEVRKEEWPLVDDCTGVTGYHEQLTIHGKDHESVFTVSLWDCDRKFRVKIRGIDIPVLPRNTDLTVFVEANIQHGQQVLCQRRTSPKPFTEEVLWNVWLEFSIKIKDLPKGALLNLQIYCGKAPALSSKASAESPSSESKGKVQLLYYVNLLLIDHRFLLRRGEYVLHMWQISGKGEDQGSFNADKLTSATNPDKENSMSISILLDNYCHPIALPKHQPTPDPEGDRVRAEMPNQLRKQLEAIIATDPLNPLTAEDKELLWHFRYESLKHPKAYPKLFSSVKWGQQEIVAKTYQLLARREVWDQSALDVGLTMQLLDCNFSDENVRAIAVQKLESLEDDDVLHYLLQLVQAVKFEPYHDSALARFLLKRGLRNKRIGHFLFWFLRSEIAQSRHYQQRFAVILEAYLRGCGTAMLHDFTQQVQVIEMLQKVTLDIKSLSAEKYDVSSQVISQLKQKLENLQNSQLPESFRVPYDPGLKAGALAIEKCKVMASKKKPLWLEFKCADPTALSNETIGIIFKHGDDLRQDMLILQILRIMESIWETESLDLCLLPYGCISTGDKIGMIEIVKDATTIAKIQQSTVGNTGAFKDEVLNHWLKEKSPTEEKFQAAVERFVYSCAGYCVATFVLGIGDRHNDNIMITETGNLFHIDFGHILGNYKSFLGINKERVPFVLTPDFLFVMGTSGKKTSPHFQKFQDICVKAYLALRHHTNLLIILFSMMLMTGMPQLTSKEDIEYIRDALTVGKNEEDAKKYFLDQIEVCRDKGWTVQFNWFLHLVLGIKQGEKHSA
T4 sequence (P42338 whole entry): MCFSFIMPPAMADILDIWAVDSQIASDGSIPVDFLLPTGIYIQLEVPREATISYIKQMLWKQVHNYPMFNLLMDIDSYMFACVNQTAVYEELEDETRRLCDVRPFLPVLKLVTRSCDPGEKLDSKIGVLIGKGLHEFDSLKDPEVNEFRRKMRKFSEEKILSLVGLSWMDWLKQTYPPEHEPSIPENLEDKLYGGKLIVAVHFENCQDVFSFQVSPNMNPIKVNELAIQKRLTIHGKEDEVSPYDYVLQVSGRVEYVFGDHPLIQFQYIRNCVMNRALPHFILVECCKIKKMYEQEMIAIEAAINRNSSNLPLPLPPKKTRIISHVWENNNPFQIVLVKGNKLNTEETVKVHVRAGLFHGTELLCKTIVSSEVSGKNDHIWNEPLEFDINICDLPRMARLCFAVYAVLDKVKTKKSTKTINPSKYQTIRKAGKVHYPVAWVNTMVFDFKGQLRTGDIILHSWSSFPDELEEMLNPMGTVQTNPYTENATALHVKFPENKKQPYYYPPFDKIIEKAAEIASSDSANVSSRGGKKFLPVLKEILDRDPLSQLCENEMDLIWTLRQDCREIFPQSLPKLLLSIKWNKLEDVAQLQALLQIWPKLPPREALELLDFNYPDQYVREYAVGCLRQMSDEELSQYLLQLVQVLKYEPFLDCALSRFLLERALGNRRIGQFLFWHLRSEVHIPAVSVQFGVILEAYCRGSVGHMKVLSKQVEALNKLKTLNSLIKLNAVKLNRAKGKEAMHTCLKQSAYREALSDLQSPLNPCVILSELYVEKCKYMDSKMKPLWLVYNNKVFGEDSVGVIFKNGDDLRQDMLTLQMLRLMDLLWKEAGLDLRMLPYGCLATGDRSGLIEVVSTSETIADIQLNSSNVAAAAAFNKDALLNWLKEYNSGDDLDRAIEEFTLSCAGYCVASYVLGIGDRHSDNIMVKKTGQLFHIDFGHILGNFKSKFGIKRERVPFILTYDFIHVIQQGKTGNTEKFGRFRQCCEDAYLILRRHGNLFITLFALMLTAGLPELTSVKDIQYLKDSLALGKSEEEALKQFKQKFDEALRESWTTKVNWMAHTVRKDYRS
T4 sequence (P27986 whole entry partner): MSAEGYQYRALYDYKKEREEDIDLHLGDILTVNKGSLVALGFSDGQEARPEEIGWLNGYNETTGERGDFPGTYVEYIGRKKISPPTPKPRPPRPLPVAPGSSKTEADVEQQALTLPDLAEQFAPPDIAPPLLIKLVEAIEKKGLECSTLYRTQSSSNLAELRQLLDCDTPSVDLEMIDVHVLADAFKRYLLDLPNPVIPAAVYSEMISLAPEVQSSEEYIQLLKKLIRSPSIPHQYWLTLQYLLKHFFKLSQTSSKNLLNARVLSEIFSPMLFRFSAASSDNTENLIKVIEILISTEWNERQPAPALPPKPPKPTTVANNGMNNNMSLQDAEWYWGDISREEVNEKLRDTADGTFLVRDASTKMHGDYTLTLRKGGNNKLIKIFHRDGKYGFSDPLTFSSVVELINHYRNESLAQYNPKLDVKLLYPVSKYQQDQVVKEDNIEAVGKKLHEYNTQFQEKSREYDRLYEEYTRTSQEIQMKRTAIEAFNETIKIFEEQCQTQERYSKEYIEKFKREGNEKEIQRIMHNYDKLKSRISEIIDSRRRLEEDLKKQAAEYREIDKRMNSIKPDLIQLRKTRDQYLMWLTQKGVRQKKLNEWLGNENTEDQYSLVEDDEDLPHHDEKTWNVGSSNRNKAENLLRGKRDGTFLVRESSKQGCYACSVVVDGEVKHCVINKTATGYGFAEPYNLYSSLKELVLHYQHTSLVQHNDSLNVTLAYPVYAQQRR
T3 sequence (P42336 whole entry): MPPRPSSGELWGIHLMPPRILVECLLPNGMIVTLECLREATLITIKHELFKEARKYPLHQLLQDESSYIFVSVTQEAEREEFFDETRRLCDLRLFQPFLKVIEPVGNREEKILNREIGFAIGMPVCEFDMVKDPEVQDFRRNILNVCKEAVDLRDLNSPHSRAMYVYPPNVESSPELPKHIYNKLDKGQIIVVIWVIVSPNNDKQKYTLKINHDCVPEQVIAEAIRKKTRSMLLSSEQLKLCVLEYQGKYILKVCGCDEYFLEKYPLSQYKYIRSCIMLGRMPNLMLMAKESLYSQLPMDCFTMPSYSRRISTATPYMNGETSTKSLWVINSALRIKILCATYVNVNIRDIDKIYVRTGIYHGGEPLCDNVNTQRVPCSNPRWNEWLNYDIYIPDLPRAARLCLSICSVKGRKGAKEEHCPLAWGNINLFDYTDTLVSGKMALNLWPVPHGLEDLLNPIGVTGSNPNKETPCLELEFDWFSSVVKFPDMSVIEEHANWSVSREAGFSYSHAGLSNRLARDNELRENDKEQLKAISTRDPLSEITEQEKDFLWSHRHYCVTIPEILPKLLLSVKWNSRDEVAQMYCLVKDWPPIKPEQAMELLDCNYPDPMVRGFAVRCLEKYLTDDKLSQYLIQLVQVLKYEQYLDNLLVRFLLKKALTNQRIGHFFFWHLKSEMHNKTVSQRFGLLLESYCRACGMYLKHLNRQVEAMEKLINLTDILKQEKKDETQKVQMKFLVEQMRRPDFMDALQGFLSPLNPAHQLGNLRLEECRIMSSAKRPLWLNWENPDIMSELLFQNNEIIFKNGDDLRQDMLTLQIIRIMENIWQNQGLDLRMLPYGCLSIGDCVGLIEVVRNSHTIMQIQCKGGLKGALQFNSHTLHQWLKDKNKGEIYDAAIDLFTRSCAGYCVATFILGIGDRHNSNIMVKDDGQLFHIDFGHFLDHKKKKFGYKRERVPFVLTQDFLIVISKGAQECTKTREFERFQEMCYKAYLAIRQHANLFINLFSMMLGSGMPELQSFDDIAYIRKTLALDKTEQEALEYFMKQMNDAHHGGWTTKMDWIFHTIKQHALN
T3 sequence (P27986 whole entry partner): as the sequence (P27986 whole entry partner) above
T1 sequence (O00329 whole entry): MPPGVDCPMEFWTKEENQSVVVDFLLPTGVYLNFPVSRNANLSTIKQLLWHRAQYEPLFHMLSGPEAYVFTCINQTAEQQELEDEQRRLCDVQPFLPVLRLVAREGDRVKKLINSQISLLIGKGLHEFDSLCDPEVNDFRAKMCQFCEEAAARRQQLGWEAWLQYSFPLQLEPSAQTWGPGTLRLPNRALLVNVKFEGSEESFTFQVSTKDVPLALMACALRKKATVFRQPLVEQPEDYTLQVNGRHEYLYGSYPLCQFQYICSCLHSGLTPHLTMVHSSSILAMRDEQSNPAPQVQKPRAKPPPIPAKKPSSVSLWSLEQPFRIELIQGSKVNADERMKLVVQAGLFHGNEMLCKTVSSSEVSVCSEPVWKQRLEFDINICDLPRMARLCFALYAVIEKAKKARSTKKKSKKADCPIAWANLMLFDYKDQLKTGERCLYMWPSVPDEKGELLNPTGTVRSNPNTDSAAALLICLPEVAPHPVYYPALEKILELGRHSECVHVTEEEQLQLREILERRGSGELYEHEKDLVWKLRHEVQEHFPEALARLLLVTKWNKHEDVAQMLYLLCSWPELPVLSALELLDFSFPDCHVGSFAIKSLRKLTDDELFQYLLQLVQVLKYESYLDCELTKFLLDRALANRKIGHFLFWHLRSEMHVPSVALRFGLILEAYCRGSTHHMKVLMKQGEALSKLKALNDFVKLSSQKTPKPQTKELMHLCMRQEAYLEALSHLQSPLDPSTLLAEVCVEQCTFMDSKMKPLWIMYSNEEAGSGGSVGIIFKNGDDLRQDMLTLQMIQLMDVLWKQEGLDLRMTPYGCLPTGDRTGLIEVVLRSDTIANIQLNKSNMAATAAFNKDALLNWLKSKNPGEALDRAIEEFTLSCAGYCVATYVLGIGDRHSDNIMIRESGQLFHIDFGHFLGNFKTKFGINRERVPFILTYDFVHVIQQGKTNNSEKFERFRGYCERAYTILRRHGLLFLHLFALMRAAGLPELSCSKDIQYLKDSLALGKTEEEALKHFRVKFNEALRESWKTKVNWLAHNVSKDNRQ
T1 sequence (P27986 whole entry partner): as the sequence (P27986 whole entry partner) above

SMILES	IC50 (PI3Kδ) [µM]	IC50 (PI3Kγ) [µM]	IC50 (PI3Kα) [µM]	IC50 (PI3Kβ) [µM]
C[C@H](Nc1ncnc2[nH]cnc12)c1cc2cccc(Cl)c2c(CN2CCC2)n1 [Compound 9]	< 1	< 10	> 10	< 10
C[C@H](Nc1ncnc2[nH]cnc12)c1cc2cccc(Cl)c2c(C(=O)N2CC(O)C2)n1 [Compound 22]	< 0.1	< 1	> 10	< 10
C[C@H](Nc1ncnc2[nH]cnc12)c1cc2cccc(Cl)c2c(C(=O)N(C)c2ccccc2)n1 [Compound 27]	< 1	< 10	> 10	> 10
C[C@H](Nc1ncnc2[nH]cnc12)c1cc2cccc(Cl)c2c(C(=O)N2CCC(O)CC2)n1 [Compound 28]	< 0.1	< 1	> 10	> 10
Cc1nc(-c2nc([C@H](C)Nc3ncnc4[nH]cnc34)cc3cccc(Cl)c23)no1 [Compound 32]	< 1	< 10	> 10	< 10
C[C@H](Nc1ncnc2[nH]cnc12)c1cc2cccc(Cl)c2c(CC(=O)N2CCOCC2)n1 [Compound 35]	< 1	< 10	> 10	> 10
C[C@H](Nc1ncnc2[nH]cnc12)c1cc2cccc(Cl)c2c(C(=O)NC2CCOCC2)n1 [Compound 48]	< 0.1	< 10	> 10	> 10
C[C@H](Nc1ncnc2[nH]cnc12)c1cc2cc(F)ccc2c(CCN2CCOCC2)n1 [Compound 55]	< 1	> 10	> 10	> 10
C[C@H](Nc1ncnc2[nH]cnc12)c1cc2cccc(Cl)c2c(C(=O)NC2CCC(O)CC2)n1 (stereo partly drawn) [Compound 58]	< 0.1	< 10	> 10	> 10
C[C@H](Nc1ncnc2scnc12)c1cc2cccc(Cl)c2c(CCN2CCOCC2)n1 [Compound 72, (S)—N-(1-(8-chloro-1-(2-morpholinoethyl)isoquinolin-3-yl)ethyl)thiazolo[5,4-d]pyrimidin-7-amine]	< 0.1	< 10	< 10	< 1
C[C@H](Nc1cc(Cl)nn2ccnc12)c1cc2cccc(Cl)c2c(CCN2CCOCC2)n1 [Compound 76, (S)-6-chloro-N-(1-(8-chloro-1-(2-morpholinoethyl)isoquinolin-3-yl)ethyl)imidazo[1,2-b]pyridazin-8-amine]	< 10	> 10	> 10	> 10
C[C@H](Nc1cc(Cl)nn2ccnc12)c1cc2ccccc2c(CCN2CCOCC2)n1 [Compound 78]	< 10	> 10	> 10	> 10
C[C@H](Nc1ncnc2[nH]cnc12)c1nc(CCN2CCOCC2)c2ccccc2c1F [Compound 87]	< 1	> 10	> 10	> 10
C[C@H](Nc1ncnc2[nH]cnc12)c1cc2cccc(Cl)c2c(OCC(C)(C)O)n1 [Compound 88]	< 1	< 10	< 10	< 10
C[C@H](NC(=O)c1nccnc1N)c1cc2cccc(Cl)c2c(CCN2CCOCC2)n1 [Compound 89, (S)-3-amino-N-(1-(8-chloro-1-(2-morpholinoethyl)isoquinolin-3-yl)ethyl)pyrazine-2-carboxamide]	< 1	< 10	> 10	< 10
C[C@H](Nc1ncnc2[nH]cnc12)c1cc2cccc(Cl)c2c(SCC[N+]2([O-])CCOCC2)n1 [Compound 94]	< 0.1	< 1	< 10	< 10
C[C@H](Nc1ncnc2cccnc12)c1cc2cccc(Cl)c2c(N2CCN(C)CC2)n1 [Compound 96]	< 0.1	< 0.1	< 1	< 1

SMILES	IC50 (PI3Kδ) [µM]	IC50 (PI3Kγ) [µM]	IC50 (PI3Kα) [µM]	IC50 (PI3Kβ) [µM]
C[C@H](Nc1ccnc2ccnn12)c1cc2cccc(Cl)c2c(N2CCN(C)CC2)n1 [Compound 97]	< 0.1	> 10	> 10	< 10
C[C@H](Nc1ncnc2[nH]cnc12)c1cc2cccc(F)c2c(N2CCN(C)CC2)n1 [Compound 100]	< 0.1	> 10	> 10	> 10
C[C@H](Nc1ncnc2cccnc12)c1cc2cccc(Cl)c2c(OCCN2CCCC2)n1 [Compound 105]	< 0.1	< 1	< 1	< 10
C[C@H](Nc1ccnc2ccnn12)c1cc2cccc(Cl)c2c(OCCN2CCCC2)n1 [Compound 106]	< 0.1	< 10	> 10	< 10
Cc1cccc2cc([C@H](C)Nc3ncnc4[nH]cnc34)nc(N3CCN(C)CC3)c12 [Compound 109]	< 0.1	< 10	> 10	< 10
C[C@H](Nc1ncnc2[nH]cnc12)c1cc2cccc(C(F)(F)F)c2c(N2CCN(C)CC2)n1 [Compound 111]	< 1	< 10	> 10	< 10
C[C@H](Nc1ncnc2cccnc12)c1cc2cccc(Cl)c2c(C(=O)N2CCOCC2)n1 [Compound 115]	< 0.1	< 1	< 10	< 10
C[C@H](NC(=O)c1cnc2cccnn12)c1cc2cccc(Cl)c2c(C(=O)N2CCOCC2)n1 [Compound 117]	< 1	< 10	> 10	< 10
C[C@H](NC(=O)c1nccnc1N)c1cc2cccc(Cl)c2c(C(=O)N2CCOCC2)n1 [Compound 118]	< 1	< 10	> 10	< 10
C[C@H](Nc1ncnc2[nH]cnc12)c1cc2cccc(Cl)c2c(C(=O)N(C)C2CCOCC2)n1 [Compound 126]	< 1	< 10	> 10	> 10
C[C@H](Nc1ncnc2[nH]cnc12)c1cc2cccc(Cl)c2c(OCC(=O)O)n1 [Compound 128, (S)-2-(3-(1-(9H-purin-6-ylamino)ethyl)-8-chloroisoquinolin-1-yloxy)acetic acid]	< 10	< 1	> 10	> 10
C[C@H](Nc1nc(N)ncc1C(F)(F)F)c1cc2cccc(Cl)c2c(CCN2CCOCC2)n1 [Compound 130]	< 0.1	< 10	> 10	< 10
C[C@H](Nc1ncnc2[nH]cnc12)c1cc2cccc(Cl)c2c(S(=O)(=O)CCN2CCOCC2)n1 [Compound 134]	< 1	> 10	> 10	> 10
CNC(=O)NCCOc1nc([C@H](C)Nc2ncnc3[nH]cnc23)cc2cccc(Cl)c12 [Compound 139]	< 1	< 10	> 10	< 10
C[C@H](Nc1ncnc2cccnc12)c1cc2cccc(Cl)c2c(C(=O)N2CCOC[C@H]2C)n1 [Compound 251]		< 1		
C[C@H](Nc1ncnc2scnc12)c1cc2cccc(Cl)c2c(C(=O)N2CCOC[C@H]2C)n1 [Compound 252]		< 10		
